Literature values in patent US20260140098A1, “METHOD FOR TREATING PLASMA SAMPLE CONTAINING (7aS,2'S)-2-OXO-CLOPIDOGREL AND METHOD FOR DETERMINING THE SAME” (CHENGDU SHIBEIKANG BIOMEDICAL TECHNOLOGY CO., LTD., priority 2021, published 2026).

How the values were obtained:
[1] = target: CYP1A2 (Homo sapiens, UniProt P05177); conditions: by CYP1A2; cited from earlier work
[2] = target: CYP2B6 (Homo sapiens, UniProt P20813); conditions: by CYP2B6; cited from earlier work
[3] = target: CYP2C19 (Homo sapiens, UniProt P33261); conditions: by CYP2C19; cited from earlier work
Chain of CYP2C19 (P33261 whole entry): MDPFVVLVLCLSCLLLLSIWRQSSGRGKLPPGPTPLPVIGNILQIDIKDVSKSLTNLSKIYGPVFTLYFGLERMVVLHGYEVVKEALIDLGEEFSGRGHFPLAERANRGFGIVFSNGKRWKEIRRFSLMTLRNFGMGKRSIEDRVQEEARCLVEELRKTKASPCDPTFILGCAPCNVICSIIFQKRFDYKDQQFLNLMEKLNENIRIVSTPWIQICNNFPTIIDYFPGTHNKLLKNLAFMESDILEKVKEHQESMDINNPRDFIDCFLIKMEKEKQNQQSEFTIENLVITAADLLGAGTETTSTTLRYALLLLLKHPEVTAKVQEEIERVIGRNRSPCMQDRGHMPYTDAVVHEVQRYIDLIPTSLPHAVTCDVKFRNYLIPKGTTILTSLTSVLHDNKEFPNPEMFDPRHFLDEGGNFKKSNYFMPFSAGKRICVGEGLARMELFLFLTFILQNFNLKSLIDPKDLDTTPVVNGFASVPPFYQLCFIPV

Chain of CYP1A2 (P05177 whole entry): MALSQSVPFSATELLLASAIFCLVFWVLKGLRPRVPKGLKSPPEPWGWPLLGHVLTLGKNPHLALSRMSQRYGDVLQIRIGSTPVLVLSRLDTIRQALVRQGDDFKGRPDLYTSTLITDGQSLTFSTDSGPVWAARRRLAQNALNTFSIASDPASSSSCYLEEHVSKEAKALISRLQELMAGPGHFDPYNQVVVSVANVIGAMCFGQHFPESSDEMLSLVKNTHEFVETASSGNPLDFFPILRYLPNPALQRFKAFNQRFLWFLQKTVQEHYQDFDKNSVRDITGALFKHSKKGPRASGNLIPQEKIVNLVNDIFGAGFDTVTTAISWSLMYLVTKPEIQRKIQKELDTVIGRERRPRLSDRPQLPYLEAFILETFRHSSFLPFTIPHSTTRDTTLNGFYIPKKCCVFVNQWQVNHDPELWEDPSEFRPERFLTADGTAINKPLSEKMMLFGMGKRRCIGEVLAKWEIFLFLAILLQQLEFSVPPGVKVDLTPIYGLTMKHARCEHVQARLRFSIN
Chain of CYP2B6 (P20813 whole entry): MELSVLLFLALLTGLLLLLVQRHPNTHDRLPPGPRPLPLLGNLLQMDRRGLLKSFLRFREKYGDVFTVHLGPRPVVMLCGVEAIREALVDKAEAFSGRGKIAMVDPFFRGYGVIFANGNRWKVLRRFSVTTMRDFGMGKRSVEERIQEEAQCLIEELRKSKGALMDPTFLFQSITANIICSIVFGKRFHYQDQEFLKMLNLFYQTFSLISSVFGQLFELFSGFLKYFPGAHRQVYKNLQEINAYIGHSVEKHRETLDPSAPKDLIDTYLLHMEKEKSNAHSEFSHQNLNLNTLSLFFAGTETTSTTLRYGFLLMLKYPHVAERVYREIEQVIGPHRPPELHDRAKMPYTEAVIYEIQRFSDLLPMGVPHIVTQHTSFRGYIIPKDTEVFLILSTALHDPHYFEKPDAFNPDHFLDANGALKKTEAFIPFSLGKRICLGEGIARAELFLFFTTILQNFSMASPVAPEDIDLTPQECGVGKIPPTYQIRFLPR

**Q.** For `COC(=O)[C@H](c1ccccc1Cl)N1CCc2sccc2C1` [clopidogrel], which “Share of Phase I metabolism into inactive 2-oxo-clopidogrel” value (“Share” below) [1] is on record?
**A.** ~36%

**Q.** And the “Share” value [2]?
**A.** ~19%

**Q.** And the “Share” value [3]?
**A.** ~45%
